Experimental data from paper PMC11057203, “Synergy between Winter Flounder antimicrobial peptides” (npj Antimicrobials and Resistance, 2023).
Non-standard residues stand in square brackets, D forms with d. Residues, ends and D or L forms follow the SMILES beside them.

What was measured:
[1] = test system: EMRSA-15 NCTC 13616; assay type: cell-based, Staphylococcus aureus
Experimental: (§1) Synergy was measured using standard microdilution Chequerboard assays under the same conditions as the MICs with RPMI140 + 5% FBS used alongside MHB[18]. Twofold dilution series of each peptide or antibiotic were prepared in separate 96 well plates and then combined into one before addition of bacteria. The growth/no growth interface was determined using the same definition as the MIC. The fractional inhibitory concentration was calculated from the most synergistic well on the plate for three independent repeats, and presented as above. MICs were determined on the same plates as the FICs to increase reproducibility.

[2] = test system: P. aeruginosa RP73; assay type: cell-based, Pseudomonas aeruginosa
Experimental: as §1

[3] = test system: Klebsiella pneumoniae NCTC 13368; assay type: cell-based; conditions: Supplementary Table 1; Mueller-Hinton broth; unit inferred
Experimental: (§3) The antibacterial activity of the peptides was assessed through a modified two-fold broth microdilution assay with modal MICs generated from at least three biological replicate experiments[37]. The method broadly followed EUCAST methodology, with non-cation adjusted Mueller Hinton replacing cation-adjusted Mueller Hinton. Peptides and antibiotics were diluted in a two-fold dilution in media down a 96 well plate. Bacteria were then added, back-diluted from an overnight culture, at a starting concentration of 5 × 10^5 CFU/ml. Plates were incubated, static at 37 °C, for 20 h and the OD600 was determined using a Clariostar plate reader (BMG Labtech).

[4] = test system: Klebsiella pneumoniae M6; assay type: cell-based; conditions: Supplementary Table 1; Mueller-Hinton broth; unit inferred
Experimental: as §3

[5] = test system: Acinetobacter baumannii AYE; assay type: cell-based; conditions: Supplementary Table 1; Mueller-Hinton broth; unit inferred
Experimental: as §3

[6] = test system: Acinetobacter baumannii ATCC 17978; assay type: cell-based; conditions: Supplementary Table 1; Mueller-Hinton broth; unit inferred
Experimental: as §3

[7] = test system: Pseudomonas aeruginosa PAO1; assay type: cell-based; conditions: Supplementary Table 1; Mueller-Hinton broth; unit inferred
Experimental: as §3

[8] = test system: Pseudomonas aeruginosa NCTC 13437; assay type: cell-based; conditions: Supplementary Table 1; Mueller-Hinton broth; unit inferred
Experimental: as §3

[9] = test system: Pseudomonas aeruginosa RP73; assay type: cell-based; conditions: Supplementary Table 1; Mueller-Hinton broth; unit inferred
Experimental: as §3

[10] = test system: Escherichia coli NCTC 12923; assay type: cell-based; conditions: Supplementary Table 1; Mueller-Hinton broth; unit inferred
Experimental: as §3

[11] = test system: EMR Staphylococcus aureus-15 NCTC 13616; assay type: cell-based; conditions: Supplementary Table 1; Mueller-Hinton broth; unit inferred
Experimental: as §3

[12] = test system: VS Enterococcus faecalis NCTC 775; assay type: cell-based; conditions: Supplementary Table 1; Mueller-Hinton broth; unit not given
[13] = test system: VR Enterococcus faecalis NCTC 12201; assay type: cell-based; conditions: Supplementary Table 1; Mueller-Hinton broth; unit inferred
Experimental: as §3

[14] = test system: VR Enterococcus faecium NCTC 12204; assay type: cell-based; conditions: Supplementary Table 1; Mueller-Hinton broth; unit inferred
Experimental: as §3

[15] = test system: Staphylococcus aureus 1199B; experiment: Broth microdilution MIC; assay type: cell-based; conditions: Supplementary Table 1; Mueller-Hinton broth; unit not given
Experimental: (§2) The antibacterial activity of the peptides was assessed through a modified two-fold broth microdilution assay with modal MICs generated from at least three biological replicate experiments. The method broadly followed EUCAST methodology, with non-cation adjusted Mueller Hinton replacing cation-adjusted Mueller Hinton. Peptides and antibiotics were diluted in a two-fold dilution in media down a 96 well plate. Bacteria were then added, back-diluted from an overnight culture, at a starting concentration of 5 × 10^5 CFU/ml. Plates were incubated, static at 37 °C, for 20 h and the OD600 was determined using a Clariostar plate reader (BMG Labtech).

[16] = test system: Staphylococcus aureus NCTC 6571; experiment: Broth microdilution MIC; assay type: cell-based; conditions: Supplementary Table 1; Mueller-Hinton broth; unit not given
Experimental: as §2

[17] = test system: Staphylococcus aureus USA300; experiment: Broth microdilution MIC; assay type: cell-based; conditions: Supplementary Table 1; Mueller-Hinton broth; unit not given
Experimental: as §2

[18] = test system: P. aeruginosa 372261; experiment: Broth microdilution MIC; assay type: cell-based, Pseudomonas aeruginosa; conditions: Supplementary Table 1; Mueller-Hinton broth; unit not given
Experimental: as §2

[19] = test system: P. aeruginosa CAS2; experiment: Broth microdilution MIC; assay type: cell-based, Pseudomonas aeruginosa; conditions: Supplementary Table 1; Mueller-Hinton broth; unit not given
Experimental: as §2

[20] = test system: P. aeruginosa CAS3; experiment: Broth microdilution MIC; assay type: cell-based, Pseudomonas aeruginosa; conditions: Supplementary Table 1; Mueller-Hinton broth; unit not given
Experimental: as §2

[21] = test system: P. aeruginosa CAS4; experiment: Broth microdilution MIC; assay type: cell-based, Pseudomonas aeruginosa; conditions: Supplementary Table 1; Mueller-Hinton broth; unit not given
Experimental: as §2

[22] = test system: P. aeruginosa GH12; experiment: Broth microdilution MIC; assay type: cell-based, Pseudomonas aeruginosa; conditions: Supplementary Table 1; Mueller-Hinton broth; unit not given
Experimental: as §2

[23] = test system: A. baumannii ATCC 17978; experiment: Galleria mellonella burn wound infection model; assay type: in vivo; conditions: 5 mg/kg, topical 1 h after infection; n = 30 larvae; burn and infection untreated 46.0%
Experimental: Prior to use, G. mellonella were surface decontaminated by immersion in 50% ethanol for 20 s and allowed to dry. All assays were performed on three separate occasions using a group size of 10 larvae; the larvae were kept in separate petri dishes and in the dark in a static incubator at 37 °C for the duration of the experiment. Fresh agar plates of A. baumannii ATCC 17978 were prepared immediately prior to the experiment. Larvae were burnt using the flat head of a nail which was heated in a blue Bunsen burner flame until red hot, cooled for 15 s and superficially applied for 2 s to generate a 2 mm^2 burn. Larvae were infected with a single colony of A. baumannii ATCC 17978 applied directly to the burn site. Treatment was applied topically 1 h after infection in a volume of 5 µl or sterile phosphate buffered saline as a control. Survival was monitored over 96 h.

[24] = test system: Gram-negative bacteria; experiment: Broth microdilution MIC, Gram-negative panel; assay type: cell-based; conditions: Mueller–Hinton broth; span of Table 2 Gram-negative isolates
Experimental: as §2

## CC[C@@H](C)[C@@H](NC(=O)[C@@H](CCCNC(=N)N)NC(=O)[C@@H](CCCNC(=N)N)NC(=O)[C@@H](CC(C)C)NC(=O)[C@H](N)Cc1c[nH]c2ccccc12)C(=O)NCC(=O)N[C@H](CCCCN)C(=O)NCC(=O)N[C@@H](C(=O)N[C@H](CCCCN)C(=O)N[C@@H](C(=O)N[C@@H](C(=O)NCC(=O)NCC(=O)N[C@H](C)C(=O)N[C@H](C)C(=O)N[C@H](CC(C)C)C(=O)N[C@H](CC(=O)O)C(=O)N[C@H](Cc1c[nH]cn1)C(=O)N[C@H](CC(C)C)C(N)=O)[C@H](C)CC)[C@H](C)CC)C(C)C [D-WF1a] (H-[dW][dL][dR][dR][dI]G[dK]G[dV][dK][dI][dI]GG[dA][dA][dL][dD][dH][dL]-NH2; N-terminus assumed)
[1]
  D-WF1a MIC (alone): 512 mg/L
[2]
  D-WF1a MIC (alone): 512 mg/L

## CC(C)C[C@@H](NC(=O)[C@@H](Cc1ccc(O)cc1)NC(=O)[C@@H](Cc1c[nH]cn1)NC(=O)[C@H](NC(=O)[C@@H](CC(C)C)NC(=O)[C@@H](C)NC(=O)[C@@H](C)NC(=O)[C@@H](CCCNC(=N)N)NC(=O)CNC(=O)[C@H](NC(=O)[C@@H](Cc1c[nH]cn1)NC(=O)[C@@H](CCCNC(=N)N)NC(=O)CNC(=O)[C@H](NC(=O)[C@@H](Cc1c[nH]cn1)NC(=O)[C@@H](C)NC(=O)[C@@H](C)NC(=O)[C@@H](CCCNC(=N)N)NC(=O)[C@@H](CCCNC(=N)N)NC(=O)[C@@H](Cc1ccccc1)NC(=O)[C@@H](Cc1ccccc1)NC(=O)[C@@H](CO)NC(=O)CNC(=O)[C@@H](Cc1c[nH]c2ccccc12)NC(=O)CN)C(C)C)C(C)C)[C@H](C)O)C(N)=O [D-pleurocidin-KR] (H-G[dW]G[dS][dF][dF][dR][dR][dA][dA][dH][dV]G[dR][dH][dV]G[dR][dA][dA][dL][dT][dH][dY][dL]-NH2; N-terminus assumed)
[1]
  Pleurocidin MIC (analogue alone): 2 µg/ml
[2]
  Pleurocidin MIC (analogue alone): 8-16 µg/ml

## CC(C)C[C@@H](NC(=O)[C@@H](Cc1ccc(O)cc1)NC(=O)[C@@H](Cc1c[nH]cn1)NC(=O)[C@H](NC(=O)[C@@H](CC(C)C)NC(=O)[C@@H](C)NC(=O)[C@@H](C)NC(=O)[C@@H](CCCCN)NC(=O)CNC(=O)[C@H](NC(=O)[C@@H](Cc1c[nH]cn1)NC(=O)[C@@H](CCCCN)NC(=O)CNC(=O)[C@H](NC(=O)[C@@H](Cc1c[nH]cn1)NC(=O)[C@@H](C)NC(=O)[C@@H](C)NC(=O)[C@@H](CCCCN)NC(=O)[C@@H](CCCCN)NC(=O)[C@@H](Cc1ccccc1)NC(=O)[C@@H](Cc1ccccc1)NC(=O)[C@@H](CO)NC(=O)CNC(=O)[C@@H](Cc1c[nH]c2ccccc12)NC(=O)CN)C(C)C)C(C)C)[C@H](C)O)C(N)=O [D-pleurocidin] (H-G[dW]G[dS][dF][dF][dK][dK][dA][dA][dH][dV]G[dK][dH][dV]G[dK][dA][dA][dL][dT][dH][dY][dL]-NH2; N-terminus assumed)
[3]
  Antimicrobial activity of D-enantiomers, Klebsiella pneumoniae NCTC 13368: 2 µg/mL
[4]
  Antimicrobial activity of D-enantiomers, Klebsiella pneumoniae M6: 2 µg/mL
[5]
  Antimicrobial activity of D-enantiomers, Acinetobacter baumannii AYE: 2 µg/mL
[6]
  Antimicrobial activity of D-enantiomers, Acinetobacter baumannii ATCC 17978: 1 µg/mL
[7]
  Antimicrobial activity of D-enantiomers, Pseudomonas aeruginosa PAO1: 2 µg/mL
[8]
  Antimicrobial activity of D-enantiomers, Pseudomonas aeruginosa NCTC 13437: 8 µg/mL
[9]
  Antimicrobial activity of D-enantiomers, P. aeruginosa RP73: 16 µg/mL
[10]
  Antimicrobial activity of D-enantiomers, Escherichia coli NCTC 12923: 1 µg/mL
[11]
  Antimicrobial activity of D-enantiomers, EMR Staphylococcus aureus-15 NCTC 13616: 16 µg/mL
[12]
  Antimicrobial activity of D-enantiomers, VS Enterococcus faecalis NCTC 775: 16
[13]
  Antimicrobial activity of D-enantiomers, VR Enterococcus faecalis NCTC 12201: 64 µg/mL
[14]
  Antimicrobial activity of D-enantiomers, VR Enterococcus faecium NCTC 12204: 16 µg/mL
[15]
  Antimicrobial activity of D-enantiomers, Staphylococcus aureus 1199B: 16
[16]
  Antimicrobial activity of D-enantiomers, Staphylococcus aureus NCTC 6571: 16
[17]
  Antimicrobial activity of D-enantiomers, Staphylococcus aureus USA300: 32
[18]
  Antimicrobial activity of D-enantiomers, P. aeruginosa 372261: 4
[19]
  Antimicrobial activity of D-enantiomers, P. aeruginosa CAS2: 8
[20]
  Antimicrobial activity of D-enantiomers, P. aeruginosa CAS3: 4
[21]
  Antimicrobial activity of D-enantiomers, P. aeruginosa CAS4: 8
[22]
  Antimicrobial activity of D-enantiomers, P. aeruginosa GH12: 4
[1]
  Pleurocidin MIC (analogue alone): 8-16 µg/ml
[2]
  Pleurocidin MIC (analogue alone): 8-16 µg/ml

## CNC(C)C1CCC(N)C(OC2C(N)CC(N)C(OC3OCC(C)(O)C(NC)C3O)C2O)O1 (stereo not drawn) [Gentamicin]
[23]
  Survival % @ 96 h: 86.7%

## C[C@@H](O)[C@H]1C(=O)N2C(C(=O)O)=C(SCCN=CN)C[C@H]12 [Imipenem]
[23]
  Survival % @ 96 h: 70.0%

## C[C@@H](O)[C@H]1C(=O)N2C(C(=O)O)=C(S[C@@H]3CN[C@H](C(=O)N(C)C)C3)[C@H](C)[C@H]12 [Meropenem]
[23]
  Survival % @ 96 h: 70.0%

## CC[C@H](C)[C@H](NC(=O)[C@H](CCCNC(=N)N)NC(=O)[C@H](CCCNC(=N)N)NC(=O)[C@H](CC(C)C)NC(=O)[C@H](Cc1c[nH]c2ccccc12)NC(=O)[C@H](CCCCN)NC(=O)[C@H](CCCNC(=N)N)NC(=O)[C@H](CCCCN)NC(=O)[C@H](CCCNC(=N)N)NC(=O)[C@H](CCCNC(=N)N)NC(=O)CN)C(=O)NCC(=O)N[C@@H](CCCCN)C(=O)NCC(=O)N[C@H](C(=O)N[C@@H](CCCCN)C(=O)N[C@H](C(=O)N[C@H](C(=O)NCC(=O)NCC(=O)N[C@@H](C)C(=O)N[C@@H](C)C(=O)N[C@@H](CC(C)C)C(=O)N[C@@H](CC(=O)O)C(=O)N[C@@H](Cc1c[nH]cn1)C(=O)N[C@@H](CC(C)C)C(N)=O)[C@@H](C)CC)[C@@H](C)CC)C(C)C [WF1a-1] (H-GRRKRKWLRRIGKGVKIIGGAALDHL-NH2)
[24]
  MICs against Gram-negative isolates (range over panel): 0.25 to 8 µg/mL
